Like-named read-outs stand apart in the source and are kept apart here.
Columns and labels:
[1] = for Leaching of EDDS, specimen with end sealing / Leaching of EDDS, specimen without end sealing: after one week, mean ± SD
From the text: The aim of this example is to show the leaching of EDDS in sea water, as well as the effect of the pH in sea water on the leaching.
Wood specimens were produced by the Danish Technological Institute, and made of sap wood of Pinus sylvestris in the dimension: 15×25×50 mm^3.
The impregnating solution used was an aqueous solution of 5% Octaquest® E30 (Innospec Limited, contains a 30% solution of trisodium-EDDS in water), 5% sodium carbonate and 5% ethanol. pH was adjusted to 4.5 with hydrochloric acid.
Three different sea water solutions were prepared using artificial sea water salt mix (Tropic Marin® Sea Salt) at half the recommended concentration (15 g/L corresponding to a specific gravity of 1010 kg/m^3), normal concentration (30 g/L corresponding to a specific gravity of 1019 kg/m^3) and half concentration with pH adjusted to 6. Specific gravity of sea water in the oceans range between 1020 and 1030 kg/m^3. For each solution six containers were prepared each containing five specimens. Half of the specimens in each solution were end sealed at both ends using Conclad 300 2-K membrane (product no. 5305A, Condor Kemi A/S, Denmark). The end seal was applied to evaluate the radial leaching of the impregnating agent in order to simulate the surfaces exposed in harbour piers.
The specimens were placed in the containers and 500 ml of sea water solution was added to each container.
After one week the water was collected and analysed for EDDS content by HPLC-UV; detection at 254 nm. The method used involved a reverse phase column and online complexing of EDDS with Cu(II)-ions. Quantifications were made from external standards (reference material used was “−30% Na3EDDS in water” from Fluka).

marine woodborers = assay: Protective effectiveness against marine borers, EN 275 harbour exposure; type: in vivo, shipworm; conditions: 6 months; compared to control subjects
Experimental: The guidelines and recommendations in EN 275: 1992—Wood preservatives—Determination of the protective effectiveness against marine borers were followed unless otherwise stated.
Wood specimens were made of sapwood of Pinus sylvestris in the dimensions: 200×75×25 mm3, with a hole ø25 mm in the centre. The specimens were produced by the Danish Technological Institute.
The biocide-impregnating solution was prepared in different compositions according to Table 4. pH was adjusted with hydrochloric acid, and 10 specimens were used for each composition of biocide-impregnating solution and each harbour exposure site.
The specimens were attached to test racks and placed in two different harbours in Denmark: Skagen (northern part of Jutland) and Rudkøbing (Langeland) on 26 and 24 Apr. 2007, respectively (FIG. 1). The specimens were collected again ˜6 months later on 23 and 25 Oct. 2007, respectively.
The attack by marine borers was evaluated by cutting up the specimen in five pieces and recording the number of borers present and the percentage of the area which they had attacked.

O=C(O)C[C@H](NCCN[C@@H](CC(=O)O)C(=O)O)C(=O)O [EDDS, (S,S)-ethylenediamine-disuccinate]
Leaching ([1]; all sea water solutions, in seven days): about 30% | Leaching from end sealed specimens compared with specimens without end sealing ([1]; all three types of sea water): significantly lower | Leaching of EDDS, specimen with end sealing ([1]; sea water normal conc.): 26.48 ± 0.92% | Leaching of EDDS, specimen without end sealing ([1]; sea water normal conc.): 33.56 ± 0.62% | Leaching of EDDS, specimen with end sealing ([1]; sea water ½ conc. pH 6): 30.07 ± 0.70% | Leaching of EDDS, specimen without end sealing ([1]; sea water ½ conc. pH 6): 36.14 ± 0.89% | Leaching of EDDS, specimen with end sealing ([1]; sea water ½ conc.): 32.08 ± 1.01% | Leaching of EDDS, specimen without end sealing ([1]; sea water ½ conc.): 34.08 ± 0.59% | Effectiveness against attack of shipworm (marine woodborers): effective

Reference: patent US20150119442A1, “Biocide agents against marine woodborers” (Teredo Marine Protection ApS, priority 2008, published 2015)
